In patent US7511144B2, “Reverse hydroxamic acid derivatives” (Kaken Pharmaceutical Co., Ltd., priority 2001, dated 2009):
Like-named read-outs stand apart in the source and are kept apart here.

Tests used:
Type in all cases: biochemical
Human MMP3 = biological target: T1, Human MMP3 (Homo sapiens, UniProt P08254); assay: MMP3 inhibition experiment; settings: concentration required for 50% inhibition of enzyme activity; read-out: IC50 value MMP-3
T1 construct: purchased Calbiochem 444217
In short: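 Fluorescence-quenched substrate NFF-3 (MOCAc/Dnp peptide, 20 μM as prepared) cleaved by 5 ng human MMP3 over 5 hours at 37° C, with inhibition measured from substrate fluorescence.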

Human MMP1 = biological target: T2, Human MMP1 (Homo sapiens, UniProt P03956); assay: MMP1 inhibition experiment; settings: read-out: IC50 value MMP-1
T2 construct: purchased Calbiochem 444208
T2 sequence (P03956 100-469): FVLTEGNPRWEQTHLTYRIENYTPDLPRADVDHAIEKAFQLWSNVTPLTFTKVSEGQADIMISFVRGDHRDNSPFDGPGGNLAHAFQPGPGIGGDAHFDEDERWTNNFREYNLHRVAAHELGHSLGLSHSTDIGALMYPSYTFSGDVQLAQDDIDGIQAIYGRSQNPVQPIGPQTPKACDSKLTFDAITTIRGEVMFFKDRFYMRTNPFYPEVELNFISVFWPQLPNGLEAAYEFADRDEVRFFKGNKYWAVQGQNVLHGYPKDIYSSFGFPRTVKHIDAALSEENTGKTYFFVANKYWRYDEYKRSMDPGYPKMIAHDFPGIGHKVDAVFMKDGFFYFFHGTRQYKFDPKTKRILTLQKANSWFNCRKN

Human MMP9 = biological target: T3, Human MMP9 (Homo sapiens, UniProt P14780); assay: MMP9 inhibition experiment; settings: read-out: IC50 value MMP-9
T3 construct: purchased Calbiochem 444231

Human MMP2 = biological target: T4, Human MMP2 (Homo sapiens, UniProt P08253); assay: MMP2 inhibition experiment; settings: concentration required for 50% inhibition of enzyme activity; read-out: IC50 value MMP-2
T4 construct: purchased Calbiochem 444213
T4 sequence (P08253 110-660): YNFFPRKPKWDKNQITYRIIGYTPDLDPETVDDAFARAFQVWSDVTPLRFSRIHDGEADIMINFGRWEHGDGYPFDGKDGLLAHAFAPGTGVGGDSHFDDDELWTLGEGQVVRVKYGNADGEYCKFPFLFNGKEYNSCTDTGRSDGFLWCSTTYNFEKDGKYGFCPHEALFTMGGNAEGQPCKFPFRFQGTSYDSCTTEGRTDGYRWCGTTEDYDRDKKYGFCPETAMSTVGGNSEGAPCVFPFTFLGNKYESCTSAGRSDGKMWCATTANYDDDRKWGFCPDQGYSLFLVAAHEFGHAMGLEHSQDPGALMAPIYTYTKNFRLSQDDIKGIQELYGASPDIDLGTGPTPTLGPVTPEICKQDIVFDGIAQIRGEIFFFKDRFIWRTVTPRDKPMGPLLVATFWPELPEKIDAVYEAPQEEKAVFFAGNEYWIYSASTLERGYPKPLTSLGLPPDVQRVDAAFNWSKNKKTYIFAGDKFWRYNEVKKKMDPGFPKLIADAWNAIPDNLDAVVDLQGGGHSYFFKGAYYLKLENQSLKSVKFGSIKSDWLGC

Human MMP17 = biological target: T5, Human MMP17 (Homo sapiens, UniProt Q9ULZ9); assay: MMP17 inhibition test; settings: concentration required for 50% inhibition of enzyme activity; read-out: IC50 value MMP-17
T5 construct: purchased Calbiochem 475940
T5 sequence (Q9ULZ9 126-300 limits assumed): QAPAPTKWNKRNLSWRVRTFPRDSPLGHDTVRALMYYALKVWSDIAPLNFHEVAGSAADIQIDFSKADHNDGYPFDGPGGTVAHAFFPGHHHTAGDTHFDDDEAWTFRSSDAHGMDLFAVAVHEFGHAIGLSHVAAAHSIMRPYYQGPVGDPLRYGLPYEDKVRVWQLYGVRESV

Human MMP13 = biological target: T6, Human MMP13 (Homo sapiens, UniProt P45452); assay: MMP13 inhibition experiment; settings: concentration required for 50% inhibition of enzyme activity; read-out: IC50 value MMP-13
T6 construct: purchased Chemicon CC068

Human MMP14 = biological target: T7, Human MMP14 (Homo sapiens, UniProt P50281); assay: MMP14 inhibition experiment; settings: concentration required for 50% inhibition of enzyme activity; read-out: IC50 value MMP-14
T7 construct: purchased Biogenesis or Calbiochem 5980-1461 or 475935
In short: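 Fluorescence assay: substrate Dnp-Pro-Cha-Gly-Cys(Me)-His-Ala-Lys(Nma)-NH2 (20 μM before equal-volume mixing) incubated at 37° C for 5 hours with 4 ng human MMP14.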

Human MMP8 = biological target: T8, Human MMP8 (Homo sapiens, UniProt P22894); assay: MMP8 inhibition experiment; settings: concentration required for 50% inhibition of enzyme activity; read-out: IC50 value MMP-8
T8 construct: purchased Calbiochem 444229
Method: MMP inhibition experiment may be carried out using a fluorescent synthetic substrate according to, for example, the methods of Bickett et al. (D. Mark Bickett et al., Anal. Biochem., 1993, 212, 58-64) and Nagase et al. (H. Nagase et al., J. Biol. Chem., 1994, 269, 20952-20957). The methods of inhibition experiments carried out for various MMPs are described below.
Human MMP8 (Calbiochem #444229) in amount of 90 μL (30 ng) was activated by mixing with 10 μL of 10 mM APMA, followed by reaction for 1 hour at 37° C. This enzyme solution in amount of 10 μL was diluted to 90 μL with the assay buffer A, which was added to 90 μL of […] fluorescent substrate (MOCAc-Pro-Leu-Gly-Leu-A2pr(Dnp)-Ala-Arg-NH2, Peptide Institute, Inc., #3163-v) prepared in the assay buffer B, followed by reaction for 5 hours at 37° C.

TACE = biological target: T9, TACE (Homo sapiens, UniProt P78536); assay: TACE inhibition experiment (in vitro)
T9 construct: made in house; host or cells: mammalian cells or insect cells

[1] = concentration required for 50% inhibition of enzyme activity

T1 sequence (P08254 100-272 limits assumed): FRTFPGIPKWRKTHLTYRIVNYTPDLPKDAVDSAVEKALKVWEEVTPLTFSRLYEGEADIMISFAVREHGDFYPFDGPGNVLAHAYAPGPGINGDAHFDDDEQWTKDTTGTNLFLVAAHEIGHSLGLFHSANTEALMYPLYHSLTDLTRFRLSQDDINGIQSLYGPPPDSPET
T9 sequence (P78536 215-824): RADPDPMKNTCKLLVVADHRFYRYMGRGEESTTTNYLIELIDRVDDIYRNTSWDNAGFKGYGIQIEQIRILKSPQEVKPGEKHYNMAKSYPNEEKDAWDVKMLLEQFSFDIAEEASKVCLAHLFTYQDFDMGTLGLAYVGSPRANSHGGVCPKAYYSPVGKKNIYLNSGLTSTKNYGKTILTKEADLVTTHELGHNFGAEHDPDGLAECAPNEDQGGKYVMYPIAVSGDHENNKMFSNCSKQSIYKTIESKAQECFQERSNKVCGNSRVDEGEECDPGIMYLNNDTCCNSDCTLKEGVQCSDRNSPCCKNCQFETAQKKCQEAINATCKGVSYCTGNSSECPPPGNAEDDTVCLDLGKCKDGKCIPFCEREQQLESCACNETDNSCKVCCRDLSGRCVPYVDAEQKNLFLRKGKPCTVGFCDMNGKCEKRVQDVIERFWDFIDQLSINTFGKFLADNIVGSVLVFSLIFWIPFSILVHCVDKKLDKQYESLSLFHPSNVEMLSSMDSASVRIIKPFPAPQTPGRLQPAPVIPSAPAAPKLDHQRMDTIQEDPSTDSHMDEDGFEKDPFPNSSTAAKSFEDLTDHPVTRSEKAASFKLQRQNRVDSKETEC
T8 sequence (P22894 101-467): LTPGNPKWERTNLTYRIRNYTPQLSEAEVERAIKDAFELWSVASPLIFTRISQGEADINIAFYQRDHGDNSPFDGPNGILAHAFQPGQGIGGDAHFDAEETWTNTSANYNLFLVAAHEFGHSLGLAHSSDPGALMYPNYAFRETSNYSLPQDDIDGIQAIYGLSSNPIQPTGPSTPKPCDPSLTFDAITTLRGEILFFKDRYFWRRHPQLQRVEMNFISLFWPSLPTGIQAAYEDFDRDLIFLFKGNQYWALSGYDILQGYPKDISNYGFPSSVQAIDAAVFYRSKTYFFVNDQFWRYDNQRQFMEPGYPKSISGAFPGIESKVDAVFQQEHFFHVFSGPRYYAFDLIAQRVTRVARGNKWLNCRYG
T3 sequence (P14780 107-707 limits assumed): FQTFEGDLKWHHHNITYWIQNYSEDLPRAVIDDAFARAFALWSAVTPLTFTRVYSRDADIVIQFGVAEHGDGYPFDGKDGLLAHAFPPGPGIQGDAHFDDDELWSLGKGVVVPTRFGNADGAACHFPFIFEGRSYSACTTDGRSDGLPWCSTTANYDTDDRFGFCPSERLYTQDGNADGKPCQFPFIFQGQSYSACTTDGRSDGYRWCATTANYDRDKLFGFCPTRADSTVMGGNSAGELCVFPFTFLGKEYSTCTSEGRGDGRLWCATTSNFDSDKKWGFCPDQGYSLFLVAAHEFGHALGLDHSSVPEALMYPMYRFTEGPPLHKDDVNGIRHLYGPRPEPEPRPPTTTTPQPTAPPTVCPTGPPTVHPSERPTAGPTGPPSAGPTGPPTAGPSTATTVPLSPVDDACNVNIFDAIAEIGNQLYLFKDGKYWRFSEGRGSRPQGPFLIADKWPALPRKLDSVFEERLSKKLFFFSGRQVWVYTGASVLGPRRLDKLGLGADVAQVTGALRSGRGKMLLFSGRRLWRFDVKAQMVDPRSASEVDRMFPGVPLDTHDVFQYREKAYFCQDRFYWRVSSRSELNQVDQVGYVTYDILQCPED

SMILES	IC50 (Human MMP3) [µM]	IC50 (Human MMP1) [µM]	IC50 (Human MMP9) [µM]	IC50 (Human MMP2) [µM]	IC50 (Human MMP17) [µM]	IC50 (Human MMP13) [µM]	IC50 (Human MMP14) [µM]	IC50 (Human MMP8) [µM]	IC50 (Human MMP1; [1]) [µM]	IC50 (Human MMP9; [1]) [µM]	IC50 (TACE) [µM]	IC50 (TACE; [1]) [µM]
Cc1cc(COc2ccc(S(=O)(=O)CC(C=C3CCOCC3)N(O)C=O)cc2)c2ccccc2n1 (single isomer, unassigned) [Example I-33, N-hydroxy-N-{2-[4-(2-methylquinolin-4-ylmethoxy)benzenesulfonyl]-1-(tetrahydropyran-4-ylidenemethyl)ethyl}formamide]	4.2	> 100	> 100	28	2.2	32	77	23	–	–	–	–
Cc1cc(COc2ccc(S(=O)(=O)CC(C=C3CCOCC3)N(O)C=O)cc2)c2ccccc2n1 (single isomer, unassigned) [Example I-34, N-hydroxy-N-{2-[4-(2-methylquinolin-4-ylmethoxy)benzenesulfonyl]-1-(tetrahydropyran-4-ylidenemethyl)ethyl}formamide]	> 100	–	–	> 100	40	> 100	> 100	> 100	> 100	> 100	–	–
Cc1cc(COc2ccc(S(=O)(=O)CC(C=C3CCOCC3)N(O)C=O)cc2)c2ccccc2n1 (stereo not shown) [Example I-9, N-Hydroxy-N-{2-[4-(2-methylquinolin-4-ylmethoxy)benzenesulfonyl]-1-(tetrahydropyran-4-ylidenemethyl)ethyl}formamide]	5.5	> 100	–	60	3	25	70	37.5	–	53	–	–
Cc1cc(COc2ccc(S(=O)(=O)CC(C=C3CCN(C(=O)OC(C)(C)C)CC3)N(O)C=O)cc2)c2ccccc2n1 (stereo not shown) [Example I-18]	0.65	65	10	3.3	0.6	3.5	20	24.5	–	–	0.004	–
Cc1cc(COc2ccc(S(=O)(=O)CC(C=C3CCN(C(=O)c4ccccc4)CC3)N(O)C=O)cc2)c2ccccc2n1 (stereo not shown) [Example I-21]	0.05	35	9	0.63	0.045	0.6	3.8	2.65	–	–	0.0022	–
O=CN(O)C(C=C1CCC(=O)CC1)CS(=O)(=O)c1ccc(OCc2ccc3ccccc3n2)cc1 (stereo not shown) [Example I-84]	78	> 100	–	6.6	42	28	90	> 100	–	–	0.55	–

Second part, the compound after the results:

IC50 (Human MMP3) [µM]	IC50 (Human MMP1) [µM]	IC50 (Human MMP9) [µM]	IC50 (Human MMP2) [µM]	IC50 (Human MMP17) [µM]	IC50 (Human MMP13) [µM]	IC50 (Human MMP14) [µM]	IC50 (Human MMP8) [µM]	IC50 (Human MMP1; [1]) [µM]	IC50 (Human MMP9; [1]) [µM]	IC50 (TACE) [µM]	IC50 (TACE; [1]) [µM]	SMILES
9	> 100	> 100	38	3.5	30	70	60	–	–	0.0055	–	CC(=C1CCOCC1)C(CS(=O)(=O)c1ccc(OCc2cc(C)nc3ccccc23)cc1)N(O)C=O (stereo not shown) [Example I-15]
10	43	–	55	4	25	50	> 100	–	31	–	0.003	Cc1cc(COc2ccc(S(=O)(=O)CC(C=C3CCSCC3)N(O)C=O)cc2)c2ccccc2n1 (stereo not shown) [Example I-17, N-Hydroxy-N-{2-[4-(2-methylquinolin-4-ylmethoxy)benzenesulfonyl]-1-(tetrahydrothiopyran-4-ylidenemethyl)ethyl}formamide]
–	50	–	–	–	–	30	8	–	–	–	–	Cc1cc(COc2ccc(S(=O)(=O)CC(CC3CCC(=NO)CC3)N(O)C=O)cc2)c2ccccc2n1 (stereo not shown) [Example I-27]
1.7	> 100	> 100	28	0.9	25	–	18	–	–	0.026	–	CC(=O)N1CCCC(C(CS(=O)(=O)c2ccc(OCc3cc(C)nc4ccccc34)cc2)N(O)C=O)C1 (stereo not shown) [Example I-133]
